This experiment addresses Sphingosine kinase 1 (Homo sapiens, UniProt Q9NYA1). Kind of experiment: Inhibition of human N-terminal MGHHHHHHHHHHSSG-tagged SphK1 (2 to 384 residues) expressed in Escherichia coli Rosetta-2 by fluorescence assay.

IC50 data for three compounds are collected here from ChEMBL document CHEMBL4130389, “An integrative study to identify novel scaffolds for sphingosine kinase 1 inhibitors” (Eur J Med Chem, 2017).

Chain of Sphingosine kinase 1 (Q9NYA1 whole entry, the tested form may be a part): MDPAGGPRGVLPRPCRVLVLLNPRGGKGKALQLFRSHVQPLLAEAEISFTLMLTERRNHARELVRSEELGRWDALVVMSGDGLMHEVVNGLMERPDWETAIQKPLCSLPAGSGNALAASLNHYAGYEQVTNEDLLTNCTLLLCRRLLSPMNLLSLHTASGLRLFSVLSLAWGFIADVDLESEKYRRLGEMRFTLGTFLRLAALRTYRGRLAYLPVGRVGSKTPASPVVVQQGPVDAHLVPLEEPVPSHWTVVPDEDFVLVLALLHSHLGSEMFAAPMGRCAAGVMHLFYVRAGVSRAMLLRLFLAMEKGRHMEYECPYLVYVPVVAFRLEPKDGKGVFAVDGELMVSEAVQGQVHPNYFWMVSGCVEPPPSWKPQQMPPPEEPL

A word on the IC50: it is the concentration at which inhibition is half-maximal. Read a high IC50 as weaker potency. `CCCCOC(=O)Nc1ccc(C(O)CN2CCN(c3ccncc3)CC2)cc1` (stereo not drawn) yielded an IC50 of 55 µM.
To `CC1Cc2c(N/N=C/c3ccc(Cl)cc3)ncnc2N(C)c2ccccc21` (stereo not drawn) belongs 12 µM; to `CCCCOC(=O)Nc1cccc(C(O)CN2CCN(c3ccncc3)CC2)c1` (stereo not drawn), 60 µM.
